The values below come from US20210085743A1, “SARRACENIA-BASED TOPICAL COMPOSITIONS AND METHODS OF USE THEREOF” (Aubio Life Sciences, LLC, priority 2019, published 2021).

One data set deals with THP-1 cells. Kind of data set: TLR agonist-induced IL-8 and TNF-α release (ELISA) in THP-1 cells. The data set is classed as cell-based, human. The note with it: control wells, 24 h.
Data set [1] relates to cancer cells including melanoma. To be noted: various types of cancer cells including melanoma; cited from earlier work.
The next data set relates to mycobacteria. The note with it: from methanolic extracts of Sarracenia purpurea; cited from earlier work.
A further data set concerns herpes. The note with it: guinea pig, topical, as infrequently as once weekly; cited from earlier work.
The test system of data set [2] is Reconstructed human epithelium (RhE). Kind of data set: MTT cell viability in SDS-damaged reconstructed human epithelium. It counts as cell-based. To be noted: SDS 0.15% for 1 h, MTT 24 h later. As for the experimental part: (§1) Reconstructed human epithelium (RhE) was damaged by exposure to SDS 0.15% for 1 h, then 25 μL of the final Sarracenia formulation (Gel B) was applied. Cell viability by the MTT assay (FIG. 1), and cytokine release, specifically, IL-1α, IL-6, IL-8 and G-CSF release measured using ELISA (FIG. 2), were evaluated 24 h later. Each treatment was run in triplicate. A statistically significant (Tukey's multiple comparison test) recovery in cell viability and cytokine release compared to SDS treated inserts was considered as indicator of repair capacity.
Each value represents the mean±SD, n=3. **p<0.01 vs control. The dotted line is set at the level of cytotoxicity obtained following SDS damage.
FIG. 1 (legend): Sarracenia extract formulation improve cellular viability in a skin irritant model. The results obtained on cell viability (MTT assay) are reported. Each value represents the mean±SD, n=3. Statistical analysis was performed with Tukey's multiple comparison test with **p<0.01 vs Control. The dotted line is set at the level of cytotoxicity obtained following SDS damage.

For data set [3] the test system is unchanged. Kind of data set: Cytokine release (ELISA) in SDS-damaged reconstructed human epithelium. The data set is classed as cell-based. To be noted: SDS vs untreated control group. As for the experimental part:
as §1, with “capacity. FIG. 2 (legend): Evaluation of cytokine production. Each value represents the mean±SD, n=3. Statistical analysis was performed with Tukey's multiple comparison test with *p<0.05 vs Control and § vs SDS treated group.” for “capacity.”
For orientation: In an ELISA, binding on a coated surface is turned into a signal by an enzyme label.

Procedure for THP-1 cells: Naïve THP-1 cells were exposed for 24 to the TLR3 agonist poly(I:C) (100 μg/ml), to the TLR7/8 agonist imidazoquinoline (1 μg/m1), to the TLR9 agonist Class A CpG oligonucleotide 5 μM, and to LPS from Escherichia coli serotype 0127:B8 10 ng/ml in the presence or absence of three not cytotoxic concentrations of the extract. IL-8 and TNF-α were measured by ELISA as reference cytokines. Three independent experiments will be conducted. A statistically significant difference versus control cells was considered relevant.
Naïve THP-1 cells were exposed for 24 to poly(I:C) 100 μg/ml, imidazoquinoline (Imid) 1 μg/ml, or LPS 10 ng/ml in the presence or absence of three concentrations of the extract 0.1, 0.5 and 1.0 mg/ml). IL-8 release was measured by ELISA.
Naïve THP-1 cells were exposed for 24 to poly(I:C) 100 μg/ml, imidazoquinoline (Imid) 1 μg/ml, or LPS 10 ng/ml in the presence or absence of three concentrations of the extract 0.1, 0.5 and 1.0 mg/ml). TNF-α release was measured by ELISA.

Regarding Poly(I:C), in the data set on THP-1 cells, the “IL-8 release by TLR agonist alone” value is on record as “induced”. Regarding `C=C(C)[C@@H]1CC[C@]2(CO)CC[C@]3(C)[C@H](CC[C@@H]4[C@@]5(C)CC[C@H](O)C(C)(C)[C@@H]5CC[C@]43C)[C@@H]12` [betulin], the anti-tumor activity entry in data set [1] was “anti-tumor activity”. For the molecule `C[C@H]1[C@H](C)CC[C@]2(C(=O)O)CC[C@]3(C)C(=CC[C@@H]4[C@@]5(C)CC[C@H](O)C(C)(C)[C@@H]5CC[C@]43C)[C@H]12` [ursolic acid], the antimycobacterial activity entry with mycobacteria is reported as “responsible for the antimycobacterial activity”.

On to `CCOCc1nc2c(N)nc3ccccc3c2n1CC(C)(C)O` [Resiquimod, 4-amino-2-ethoxymethyl-α,α-dimethyl-1H-imidazo [4,5-c]quinoline-1-ethanol], for which the “recurrences of herpes after therapy” value with herpes is reported as “reduces recurrences of herpes”. Take `c1cnc2c(c1)ccc1nc[nH]c12` [imidazoquinoline]: the “IL-8 release by TLR agonist alone” value with THP-1 cells is “induced”. For `C=C(C)[C@@H]1CC[C@]2(C)CC[C@]3(C)[C@H](CC[C@@H]4[C@@]5(C)CC[C@H](O)C(C)(C)[C@@H]5CC[C@]43C)[C@@H]12` [lupeol], the anti-tumor activity entry in data set [1] is “anti-tumor activity”. For the molecule `C=C(C)[C@@H]1CC[C@]2(C=O)CC[C@]3(C)[C@H](CC[C@@H]4[C@@]5(C)CC[C@H](O)C(C)(C)[C@@H]5CC[C@]43C)[C@@H]12` [betulinaldehyde], the antimycobacterial activity result with mycobacteria was “responsible for the antimycobacterial activity”. In the case of `CCCCCCCCCCCCOS(=O)(=O)[O-].[Na+]` [SDS], in data set [2], the “cell viability after SDS damage” value is given as “below 50%”. Moreover, in data set [3], the IL-1α release result is reported as “increase” and the IL-8 release result was “increase”.
